Laboratory results taken from paper PMC6895912 (Cancers, 2019).
Like-named read-outs stand apart in the source and are kept apart here.

Experiments:
Mnk1 = molecular target: T1, Mnk1 (Homo sapiens, UniProt Q9BUB5); assay: Protein level decrease by western blot, dose-response in CWR22Rv1 cells; assay type: cell-based; settings: for times more effective (than Gal) in degrading Mnk1: from EC50 values
T1 construct: compound treatments (0–7.5 µM) of CWR22Rv1 cells for 72 h followed by western blot analysis of cells lysates; endogenous in cells; host or cells: CWR22Rv1
T1 sequence (Q9BUB5 whole entry): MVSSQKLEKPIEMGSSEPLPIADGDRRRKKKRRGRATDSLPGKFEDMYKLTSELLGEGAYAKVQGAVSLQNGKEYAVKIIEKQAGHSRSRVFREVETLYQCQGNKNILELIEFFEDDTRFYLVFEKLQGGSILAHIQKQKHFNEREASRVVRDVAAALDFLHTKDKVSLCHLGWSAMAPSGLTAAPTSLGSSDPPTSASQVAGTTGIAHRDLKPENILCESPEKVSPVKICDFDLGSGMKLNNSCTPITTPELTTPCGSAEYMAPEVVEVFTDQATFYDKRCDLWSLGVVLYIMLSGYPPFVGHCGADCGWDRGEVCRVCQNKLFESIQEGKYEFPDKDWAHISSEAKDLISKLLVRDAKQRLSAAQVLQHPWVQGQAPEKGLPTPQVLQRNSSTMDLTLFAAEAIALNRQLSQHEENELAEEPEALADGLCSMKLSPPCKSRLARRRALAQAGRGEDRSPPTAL
Excerpt: Figure 4 Impact of Gal and NGGAs on AR/AR-V7 and Mnk1/2-eIF4E signaling pathways. (A) Western blot showing the effects of Gal and VNPT55 (55) on Mnk1, Mnk2, and peIF4E. (B) Western blot showing the effects of VNPP414 (414) and VNPP433-3β (433)) on Mnk1, Mnk2, and peIF4E. (C) Western blot showing dose-dependent effect of VNPP433-3β (433) on Mnk2, BMI-1, and peIF4E in CWR-R1 cells. (D) Western blot showing dose-dependent effect of Gal on Mnk1, Mnk2, BMI-1, and Snail1 in drug-resistant CWR-R1(10E) cells. (E) Western blot showing dose-dependent effect of VNPP433-3β (433) on Mnk1, Mnk2, BMI-1, and Snail1 in drug-resistant CWR-R1(10E) cells. (F) EC50 values (for fAR, ARV-7 and Mnk1) for compounds determined from dose–response curves upon compound treatments (0–7.5 µM) of CWR22Rv1 cells for 72 h followed by western blot analysis of cells lysates. Note: the numbers in parentheses in Figure 4B are concentrations of the agents in µM.
We further determined the effects of lead NGGAs on f-AR, AR-V7 and Mnk1 protein levels in CWR22Rv1 cells. Following agent treatments (0–7.5 µM), the EC50 values were determined from dose–response curves. […] Of note is the finding that although there was no dramatic difference between the agents in terms of their effects on f-AR suppression, there were significant differences in their relative potencies against AR-V7 and Mnk1.
Cells were lysed with radioimmunoprecipitation assay (RIPA) buffer (Sigma, St. Louis, MO, USA), supplemented with 1X protease inhibitors (Roche, Indianapolis, IN, USA), phosphatase inhibitors (Thermo Scientific, Waltham, MA, USA), 1 mmol/L EDTA and 1 mmol/L PMSF (Sigma). Western blot analyses were performed as in Kwegyir-Afful et al., 2015 [2].

[1] = Plasma pharmacokinetics after single IV, IP or PO dose; assay type: in vivo, male CD-1 mice; settings: for bioavailability: read-out: F (%) absolute bioavailability
Protocol: These studies were conducted in male CD-1 mice (7–8 weeks old, weighing about 27–33 g) were obtained from Hylasco Bio-Technology Pvt. Ltd. (A Charles River Technology Licensee, Turkapally, India). The details are presented in the Supplementary Materials.
A generic gradient LC method with a short run times of 3.5 min for Gal and 4.5 min for VNPP414 and VNPP433-3β were developed for the analysis of Gal/analogs in plasma samples. The mobile phase flow rate was 1.0 mL/min with a split ratio of 1:1 to the ionization source. The mobile phase for Gal consisted of 10 mM ammonium acetate in water as aqueous component and 100% methanol as organic modifier. For the Gal analogs, the mobile phase consisted of 0.01% formic acid in water and 100% acetonitrile. The column and autosampler were maintained at 40°C and 15°C, respectively for all assays. The turbo ion spray source was operated with typical settings as follows: ionization mode, positive; curtain gas, 30 psi; nebulizer gas (GS1), 55 psi; heater gas (GS2), 50 (for Gal analyte) and 60 (for Gal analogs analytes) psi; nebulizer gas 55 psi; temperature, 550 °C. A summary of the ion transitions, collision energies and retention times for both the analytes (Gal, VNPP414 and VNPP433- […]
components were automatically integrated using Analyst software version 1.5.
Table S1. Optimized mass spectroscopic conditions. *IS: internal standard; **Gal had two daughter ions (m/z: 119.20 and 195.20) that were used for multiple reaction monitoring (MRM) in LC-MS/MS runs. Because we observed a poor shape peak of Gal with fragment of m/z 195.20 at lower levels (LLOQ: 1 ng/mL) in plasma samples, we used fragment m/z 119.20 for the PK study. We used fragment of m/z 195.20 when Gal was used as IS where the concentration was ~200 ng/mL. This fragment was stable throughout the study.
Analytes Parent ions Daughter ions Collision energy Declustering potentials […]
1.5. Pharmacokinetics of Gal, VNPP414 and VNPP433-3β in CD-1 Mice
Male CD-1 mice (7-8 weeks old, weighing about 27-33 g) were obtained from Hylasco Bio-Technology Pvt. Ltd (A Charles River Technology Licensee in India) were maintained in a controlled environment of about 25 °C, 50% relative humidity and a 12-h light/12-h dark cycle. The compounds were formulated in either 10% DMSO in 10% solutol in phosphate-buffered saline (PBS) for single intravenous doses (1 mg/kg) or in 40% β-cyclodextrin in saline for single intraperitoneal or oral doses (10 mg/kg). 10 ml/kg dose volume used for administrating the formulation for all the three routes (IV, IP and PO). The IV administration was performed through tail vein of mice as bolus. For IP route, the compound was dosed in intraperitoneal cavity using a 27-gauze needle. PO administration was performed through gastric gavage tube (aka feeding tube). Serial blood samples were collected from 3 mice per time-point (staggered bleeding approach was used for mice where one mice was bled maximum for three time within 24h) into vacutainers containing lithium heparin (anticoagulant) at and 24 h post dose after intraperitoneal or oral administration. In total, 81 mice were used for this study. At each time point 200 μL of blood was collected into vacutainers. Venous blood Samples were collected using retro orbital puncture method. Plasma was isolated by centrifugation at 10000 rpm for 10 min and stored frozen at -80°C until assay. Plasma pharmacokinetic parameters were calculated using the non-compartmental analysis tool of Phoenix software (Version 7, Pharsight) and were determined from individual animals in each group. The area under the plasma concentration-time curve (AUC0-t and AUCinf), elimination half-life (T1/2), clearance (CL), volume of distribution (Vd) and mean residence time (MRT) were calculated from intravenous group. The peak plasma concentration (Cmax), time to achieve peak plasma concentration (Tmax), AUC0-t and AUCinf, were […]
calculated for the IP and PO groups. Absolute oral bioavailability (%F) were calculated from the PO […]

[2] = 0–7.5 µM, 72 h, western blot, read-out: Mnk1 EC50
[3] = mouse, plasma, IP 10 mg/kg, male CD-1 mice
[4] = mouse, plasma, IV 1 mg/kg, male CD-1 mice
[5] = mouse, plasma, PO 10 mg/kg, male CD-1 mice
[6] = mouse, IP 10 mg/kg, male CD-1 mice, plasma
[7] = mouse, IV 1 mg/kg, male CD-1 mice, plasma
[8] = mouse, PO 10 mg/kg, male CD-1 mice, plasma
[9] = PO 10 mg/kg, male CD-1 mice, 10 mg/kg
[10] = male, CD-1, mouse, in vivo, ip, 10 mg/kg, IP 10 mg/kg, male CD-1 mice
[11] = male, CD-1, mouse, in vivo, po, 10 mg/kg, PO 10 mg/kg, male CD-1 mice
[12] = mouse, in vivo, IP 10 mg/kg, male CD-1 mice, plasma
[13] = mouse, in vivo, PO 10 mg/kg, male CD-1 mice, plasma

SMILES	DC50 (Mnk1; [2]) [nM]	half-life [1, 3] [min]	bioavailability [1, 3] [%]	half-life [1, 4] [min]	half-life [1, 5] [min]	bioavailability [1, 5] [%]	AUC(0-inf) [1, 6] [ng·h/mL]	Cmax [1, 6] [ng/mL]	AUC(0-inf) [1, 7] [ng·h/mL]	AUC(0-inf) [1, 8] [ng·h/mL]	Cmax [1, 8] [ng/mL]	times more effective (than Gal) in degrading Mnk1 (Mnk1) [times]	also measured
C[C@]12CC[C@H](O)CC1=CC[C@@H]1[C@@H]2CC[C@]2(C)C(n3cnc4ccccc43)=CC[C@@H]12 [Galeterone]	5290 ± 90	74.4	169	10.2	75.6	18.4	111	507	57.9	969	32.8		half-life ([1]; male, CD-1, mouse, plasma, range over IV, IP and PO routes, mice): 10.2 to 75.6 min
C[C@]12CC[C@H](n3ccnc3)CC1=CCC1C2CC[C@]2(C)C(n3cnc4ccccc43)=CCC12 (stereo partly drawn) [VNPP433-3β]												66.0	DC50 (Mnk1; read-out: Mnk1 EC50, 0–7.5 µM, 72 h, western blot): 80 nM; F (%) absolute bioavailability [1, 9]: 49.45%; T1/2 [1, 9]: 31.19 h; half-life [1, 10]: 1340 min; bioavailability [1, 10]: 123%; half-life ([1]; male, CD-1, mouse, in vivo, iv, 1 mg/kg, IV 1 mg/kg, male CD-1 mice): 856 min; half-life [1, 11]: 1870 min; bioavailability [1, 11]: ~50%; AUC ([1]; male, CD-1, mouse, in vivo, 10 mg/kg oral dosing, mice): 71.9 µM·h; Cmax ([1]; male, CD-1, mouse, in vivo, PO 10 mg/kg, plasma, converted from ng/mL): ~2000 nM; AUC(0-inf) [1, 12]: 57300 ng·h/mL; Cmax [1, 12]: 2290 ng/mL; AUC(0-inf) ([1]; mouse, in vivo, IV 1 mg/kg, male CD-1 mice, plasma): 3470 ng·h/mL; AUC(0-inf) [1, 13]: 31800 ng·h/mL; Cmax [1, 13]: 706 ng/mL
C[C@]12CC[C@H](OCc3ccncc3)CC1=CCC1C2CC[C@]2(C)C(n3cnc4ccccc43)=CCC12 (stereo partly shown) [VNPP414]	560 ± 70	375	157	449	258	19.4	8600	2170	547	1030	175	9.4	
